Experimental data published in article PMC5610242, “Stapled peptide inhibitors of RAB25 target context-specific phenotypes in cancer” (Nature Communications, 2017).
Bridge positions count the residues as written; N and C are the ends. Square brackets hold non-standard residues; d marks the D form. Ends that are not written are not given here. Peptide text beside a SMILES is read from it. * marks the point of attachment. FITC = O=C1OC2(c3ccc(O)cc3Oc3cc(O)ccc32)c2ccc(NC(=S)*)cc21; S5 = C=CCCC[C@](C)(N)C(=O)O; Nle = CCCC[C@H](N)C(=O)O; PEG = not defined here; βAla = NCCC(=O)O

Assays:
[1] = molecular target: T1, RAB11a (activated Q70L mutant) (Homo sapiens, UniProt P62491, Q70L); assay: Fluorescence polarization binding of FITC-labeled RFP peptides to RAB11a; conditions: FP, 30 min room temperature
T1 construct: GST-RAB11a (1–173, Q70L mutant) in pGEX5x-1; made in house; host or cells: E. coli BL21
T1 sequence (P62491 1-173 Q70L): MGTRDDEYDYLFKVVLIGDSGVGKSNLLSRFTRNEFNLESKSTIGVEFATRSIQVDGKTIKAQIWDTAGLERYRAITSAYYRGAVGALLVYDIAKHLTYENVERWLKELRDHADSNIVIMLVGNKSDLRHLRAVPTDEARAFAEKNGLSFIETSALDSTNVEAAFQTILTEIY
Method: (§1) Fluorescence polarization assays were performed with for GST-RAB25 and GST-RAB11a to quantify binding to FITC-labeled unmodified and stapled RFP peptides. Initial fluorescence polarization measurements for RFP1−RFP13 were made by incubating FITC-RFP peptides (25 nM) with threefold dilutions of a given protein in FP buffer, consisting of 20 mM Tris pH 8.0, 150 mM NaCl, 5 mM MgCl2, 2 mM DTT, 10 μM GTP and 2% glycerol. Dilutions and incubations were performed in 96-well, black flat-bottom plates (Nunc) to a total volume of 100 μL, and equilibrated at room temperature for 30 min. Polarization was measured on a Spetramax-M5 multi-label plate reader (Molecular Devices) with λ ex = 485 nm and λ em = 525 nm. Polarization values were determined using the equation: P = (V − H)/(V + H), where P denotes polarization, V denotes vertical emission intensity and H represents horizontal emission intensity. Fraction bound was calculated using the equilibrium maximum polarization value obtained for a given protein among ligands, to which background-subtracted fluorescence polarization values were internally normalized. Fluorescence polarization measurements for FITC-RFP14, 24, 26, 31, and 32 were performed as detailed above with the exception that 10 nM FITC-ligand was used.

[2] = molecular target: T2, RAB25 (Homo sapiens, UniProt P57735); assay: Fluorescence polarization binding of FITC-labeled RFP peptides to RAB25; conditions: FP, 30 min room temperature
T2 construct: GST-RAB25 (1–180) in pET41 Ek/LIC; made in house; host or cells: E. coli BL21
T2 sequence (P57735 1-180): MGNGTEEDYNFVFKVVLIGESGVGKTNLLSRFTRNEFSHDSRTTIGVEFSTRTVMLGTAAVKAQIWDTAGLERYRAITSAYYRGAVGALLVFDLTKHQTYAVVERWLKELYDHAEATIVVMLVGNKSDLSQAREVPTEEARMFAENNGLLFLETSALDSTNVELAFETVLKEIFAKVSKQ
Method: as §1

[3] = Circular dichroism spectroscopy and thermal denaturation; type: physicochemical; conditions: 50 μM peptide in deionized water, 190–260 nm, room temperature
Method: Circular dichroism spectroscopy experiments were performed on a Jasco J-170 using a quartz cuvette (path length: 0.1 cm). Peptides were dissolved to 50 μM in deionized water and CD measurements were recorded at one nm increments between 190 and 260 nm, at room temperature. Thermal denaturation experiments were performed by recording CD absorbance at 222 nm at one-degree increments from 10 to 90 °C using a thermostat-controlled cuvette chamber. Raw denaturation data were fit to sigmoidal curves with Prizm 5 software, and the half-maximal temperature was reported as the peptide T m.

[4] = molecular target: T3, H6-RAB25:bio-RFP14 complex (Homo sapiens, UniProt P57735); assay: ALPHAscreen competitive inhibition of RAB25:RFP14 complex formation; type: binding; conditions: H6-RAB25 0.2 μM and bio-RFP14 0.2 μM, mean with 95% C.I., triplicate
T3 construct: His6-RAB25 (1–180) in pET28; made in house; host or cells: E. coli BL21
T3 sequence (P57735 1-180): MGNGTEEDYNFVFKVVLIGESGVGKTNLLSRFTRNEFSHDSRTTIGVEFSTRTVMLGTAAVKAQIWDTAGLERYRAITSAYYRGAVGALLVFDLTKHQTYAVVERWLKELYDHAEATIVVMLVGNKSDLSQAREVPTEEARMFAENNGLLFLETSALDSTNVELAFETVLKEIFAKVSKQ

[5] = tested on: all cell lines tested (HEY, MCF7, MDA-MB231); assay: Toxicity seen in wound healing studies; type: cell-based; conditions: 10 μM
Method: Cells were seeded at a density of 5000–7000 cells for HEY and MDA-MB231 or 15,000 cells for MCF7 on each side of an Ibidi culture insert (Ibidi, Munich, Germany), with a 500 μm separation between each side of the well, and allowed to grow for 24 h to attain a compact monolayer. Cells were pretreated with, or without, RFP peptides (10 μM) or DMSO control for 12 h before removal of the insert, and following removal of the insert cells were incubated in RFP-containing media or DMSO control for the duration of wound closure. Cells were photographed using a Life Technologies EVOS XL Core imaging system 4× or a Nikon DS camera connected to a Nikon Eclipse Ti microscope objective at insert removal (0 h) and when wound closure was complete under control conditions. Experiments were performed in duplicate and a minimum of four fields of the injury were photographed and used for quantification.

RFP4: unmodified FIP4 peptide ({FITC-PEG}-EQEEINFRLRQYMDKIILAILDHNPSILEIKH; reading uncertain)
binding to RAB11a (in words) ([1]; 25 nM FITC-RFP peptide): micromolar affinities | binding to RAB25 (in words) ([2]; 25 nM FITC-RFP peptide): micromolar affinities | CD spectrum, secondary structure [3]: partially disordered peptide folds

CC[C@H](C)[C@H](NC(=O)[C@H](CCCNC(=N)N)NC(=O)[C@H](C)NC(=O)[C@H](C)NC(=O)[C@]1(C)CCCC=CCCC[C@](C)(NC(=O)[C@H](CC(N)=O)NC(=O)[C@H](CCC(N)=O)NC(=O)[C@H](CC(C)C)NC(=O)[C@H](CCCNC(=N)N)NC(=O)[C@H](Cc2ccccc2)NC(=O)[C@H](CC(N)=O)NC(=O)[C@@H](NC(=O)[C@H](CCCNC(=N)N)NC(=O)CCNC(=O)[C@@H](N)Cc2c[nH]c3ccccc23)[C@@H](C)CC)C(=O)N[C@@H]([C@@H](C)CC)C(=O)N[C@@H](CC(=O)O)C(=O)N[C@@H](CCCNC(=N)N)C(=O)N1)C(=O)N[C@@H](C)C(=O)N[C@@H](CCC(=O)O)C(=O)N[C@H](C(=O)N[C@@H](CC(N)=O)C(=O)N1CCC[C@H]1C(=O)N[C@@H](CO)C(=O)N[C@H](C(=O)N[C@@H](CC(C)C)C(=O)N[C@@H](CCC(=O)O)C(=O)N[C@H](C(=O)N[C@@H](CCCCN)C(N)=O)C(C)C)[C@@H](C)CC)[C@@H](C)O [RFP31] (H-W[βAla]RINFRLQN[S5]IDR[S5]AARIAETNPSILEVK-NH2; staple 11-15)
Kd ([1]; 10 nM FITC-ligand, GST-RAB11a (1–173, Q70L), FP buffer pH 8.0 with 10 μM GTP, mean with 95% C.I., triplicate, read-out: apparent Kd (95% C.I.) RAB11a): > 5 µM | Kd ([2]; 10 nM FITC-ligand, GST-RAB25, FP buffer pH 8.0 with 10 μM GTP, mean with 95% C.I., triplicate, read-out: apparent Kd (95% C.I.) RAB25): > 5 µM | IC50 [4]: 3.3 µM

CCCC[C@H](NC(=O)[C@@H](NC(=O)[C@H](CCCNC(=N)N)NC(=O)[C@@H](NC(=O)[C@@H](NC(=O)[C@]1(C)CCCC=CCCC[C@](C)(NC(=O)[C@H](CC(N)=O)NC(=O)[C@H](CCC(N)=O)NC(=O)[C@H](CC(C)C)NC(=O)[C@H](CCCNC(=N)N)NC(=O)[C@H](Cc2ccccc2)NC(=O)[C@H](CC(N)=O)NC(=O)[C@@H](NC(=O)[C@H](CCCNC(=N)N)NC(=O)CCNC(=O)[C@@H](N)Cc2c[nH]c3ccccc23)[C@@H](C)CC)C(=O)N[C@@H]([C@@H](C)CC)C(=O)N[C@@H](CC(=O)O)C(=O)N[C@@H](CCCNC(=N)N)C(=O)N1)[C@@H](C)CC)C(C)C)[C@@H](C)CC)C(=O)N[C@@H](CCC(=O)O)C(=O)N[C@H](C(=O)N[C@@H](CC(N)=O)C(=O)N1CCC[C@H]1C(=O)N[C@@H](CO)C(=O)N[C@H](C(=O)N[C@@H](CC(C)C)C(=O)N[C@@H](CCCNC(=N)N)C(=O)N[C@H](C(=O)N[C@@H](CCCCN)C(N)=O)C(C)C)[C@@H](C)CC)[C@@H](C)O [RFP26] (H-W[βAla]RINFRLQN[S5]IDR[S5]IVRI[Nle]ETNPSILRVK-NH2; staple 11-15)
toxicity in wound healing studies [5]: considerable toxicity
